Measured values taken from ChEMBL document CHEMBL5033997, “Macrolide Inspired Macrocycles as Modulators of the IL-17A/IL-17RA Interaction” (J Med Chem, 2021).

Assay: Inhibition of recombinant human IL-17A/IL-17AR protein-protein interaction using TMB substrate compound added on IL17A precoated plate and followed by IL-17AR addition by ELISA

Structure (SMILES) | IC50 [µM]
CO[C@]1(C)C[C@H](O[C@H]2[C@H](C)[C@@H](O[C@@H]3O[C@H](C)C[C@H](N(C)C)[C@H]3O)[C@](C)(O)C[C@@H](C)CN(C)C(=O)[C@H](C(C)C)NC(=O)C[C@H](Cc3ccc(NC(=O)[C@H](Cc4ccccc4Cl)NC(=O)Cc4ccccc4)cc3)NC(=O)[C@@H]2C)O[C@@H](C)[C@@H]1O | > 30
COc1ccc(C(=O)N[C@@H](Cc2ccccc2Cl)C(=O)Nc2ccc(C[C@@H]3CC(=O)N(C)C[C@H](C)C[C@@](C)(O)[C@H](O[C@@H]4O[C@H](C)C[C@H](N(C)C)[C@H]4O)[C@@H](C)[C@H](O[C@H]4C[C@@](C)(OC)[C@@H](O)[C@H](C)O4)[C@@H](C)C(=O)N[C@@H](C(C)C)C(=O)N3)cc2)cc1 | 0.397
CO[C@]1(C)C[C@H](O[C@H]2[C@H](C)[C@@H](O[C@@H]3O[C@H](C)C[C@H](N(C)C)[C@H]3O)[C@](C)(O)C[C@@H](C)CN(C)C(=O)[C@H](Cc3ccc(NC(=O)[C@H](Cc4ccccc4Cl)NC(=O)Cc4ccccc4)cc3)NC(=O)[C@H](C(C)C)NC(=O)[C@@H]2C)O[C@@H](C)[C@@H]1O | 15.9
CO[C@]1(C)C[C@H](O[C@H]2[C@H](C)[C@@H](O[C@@H]3O[C@H](C)C[C@H](N(C)C)[C@H]3O)[C@](C)(O)C[C@@H](C)CN(C)C(=O)C[C@@H](Cc3ccc(NC(=O)[C@H](Cc4ccccc4Cl)NC(=O)Cc4ccccc4)cc3)NC(=O)[C@@H]3CCCN3C(=O)[C@@H]2C)O[C@@H](C)[C@@H]1O | > 30
CO[C@]1(C)C[C@H](O[C@H]2[C@H](C)[C@@H](O[C@@H]3O[C@H](C)C[C@H](N(C)C)[C@H]3O)[C@](C)(O)C[C@@H](C)CN(C)C(=O)C[C@@H](Cc3ccc(NC(=O)[C@H](Cc4ccccc4Cl)NC(=O)Cc4ccccc4)cc3)NC(=O)CCNC(=O)[C@@H]2C)O[C@@H](C)[C@@H]1O | > 30
CO[C@]1(C)C[C@H](O[C@H]2[C@H](C)[C@@H](O[C@@H]3O[C@H](C)C[C@H](N(C)C)[C@H]3O)[C@](C)(O)C[C@@H](C)CN(C)C(=O)[C@@H](C(C)C)NC(=O)C[C@@H](Cc3ccc(NC(=O)[C@H](Cc4ccccc4Cl)NC(=O)Cc4ccccc4)cc3)NC(=O)[C@@H]2C)O[C@@H](C)[C@@H]1O | > 30
CO[C@]1(C)C[C@H](O[C@H]2[C@H](C)[C@@H](O[C@@H]3O[C@H](C)C[C@H](N(C)C)[C@H]3O)[C@](C)(O)C[C@@H](C)CN(C)C(=O)C[C@@H](Cc3ccc(NC(=O)[C@H](Cc4ccccc4Cl)NC(=O)Cc4ccccc4C)cc3)NC(=O)[C@H](C(C)C)NC(=O)[C@@H]2C)O[C@@H](C)[C@@H]1O | 0.116
CO[C@]1(C)C[C@H](O[C@H]2[C@H](C)[C@@H](O[C@@H]3O[C@H](C)C[C@H](N(C)C)[C@H]3O)[C@](C)(O)C[C@@H](C)CN(C)C(=O)C[C@@H](Cc3ccc(NC(=O)[C@H](Cc4ccccc4Cl)NC(=O)Cc4ccccc4)cc3)NC(=O)CC3(CCCC3)CNC(=O)[C@@H]2C)O[C@@H](C)[C@@H]1O | 6.76
CO[C@]1(C)C[C@H](O[C@H]2[C@H](C)[C@@H](O[C@@H]3O[C@H](C)C[C@H](N(C)C)[C@H]3O)[C@](C)(O)C[C@@H](C)CN(C)C(=O)[C@@H](Cc3ccc(NC(=O)[C@H](Cc4ccccc4Cl)NC(=O)Cc4ccccc4)cc3)NC(=O)C[C@H](C(C)C)NC(=O)[C@@H]2C)O[C@@H](C)[C@@H]1O | > 30
CO[C@]1(C)C[C@H](O[C@H]2[C@H](C)[C@@H](O[C@@H]3O[C@H](C)C[C@H](N(C)C)[C@H]3O)[C@](C)(O)C[C@@H](C)CN(C)C(=O)[C@@H](Cc3ccc(NC(=O)[C@H](Cc4ccccc4Cl)NC(=O)Cc4ccccc4)cc3)NC(=O)C[C@@H](C(C)C)NC(=O)[C@@H]2C)O[C@@H](C)[C@@H]1O | > 30
CO[C@]1(C)C[C@H](O[C@H]2[C@H](C)[C@@H](O[C@@H]3O[C@H](C)C[C@H](N(C)C)[C@H]3O)[C@](C)(O)C[C@@H](C)CN(C)C(=O)[C@H](Cc3ccc(NC(=O)[C@H](Cc4ccccc4Cl)NC(=O)Cc4ccccc4)cc3)NC(=O)[C@@H](C(C)C)NC(=O)[C@@H]2C)O[C@@H](C)[C@@H]1O | 1.4
CO[C@]1(C)C[C@H](O[C@H]2[C@H](C)[C@@H](O[C@@H]3O[C@H](C)C[C@H](N(C)C)[C@H]3O)[C@](C)(O)C[C@@H](C)CN(C)C(=O)[C@@H](Cc3ccc(NC(=O)[C@H](Cc4ccccc4Cl)NC(=O)Cc4ccccc4)cc3)NC(=O)[C@@H](C(C)C)CNC(=O)[C@@H]2C)O[C@@H](C)[C@@H]1O | > 30

Further lines, results first:

IC50 [µM] | Structure (SMILES)
> 30 | CO[C@]1(C)C[C@H](O[C@H]2[C@H](C)[C@@H](O[C@@H]3O[C@H](C)C[C@H](N(C)C)[C@H]3O)[C@](C)(O)C[C@@H](C)CN(C)C(=O)C[C@@H](Cc3ccc(NC(=O)[C@H](Cc4ccccc4Cl)NC(=O)Cc4ccccc4)cc3)NC(=O)[C@@H](C)NC(=O)[C@@H]2C)O[C@@H](C)[C@@H]1O
2.62 | CO[C@]1(C)C[C@H](O[C@H]2[C@H](C)[C@@H](O[C@@H]3O[C@H](C)C[C@H](N(C)C)[C@H]3O)[C@](C)(O)C[C@@H](C)CN(C)C(=O)C[C@@H](Cc3ccc(NC(=O)[C@H](Cc4ccccc4Cl)NC(=O)Cc4ccccc4)cc3)NC(=O)[C@H](C3CC3)NC(=O)[C@@H]2C)O[C@@H](C)[C@@H]1O
2.9 | CO[C@]1(C)C[C@H](O[C@H]2[C@H](C)[C@@H](O[C@@H]3O[C@H](C)C[C@H](N(C)C)[C@H]3O)[C@](C)(O)C[C@@H](C)CN(C)C(=O)C[C@@H](Cc3ccc(NC(=O)[C@H](Cc4ccccc4Cl)NC(=O)Cc4ccccc4)cc3)NC(=O)[C@H](C(C)C)CNC(=O)[C@@H]2C)O[C@@H](C)[C@@H]1O
5.9 | CO[C@]1(C)C[C@H](O[C@H]2[C@H](C)[C@@H](O[C@@H]3O[C@H](C)C[C@H](N(C)C)[C@H]3O)[C@](C)(O)C[C@@H](C)CN(C)C(=O)C[C@@H](Cc3ccc(NC(=O)[C@H](Cc4ccccc4Cl)NC(=O)Cc4ccccc4)cc3)NC(=O)[C@@H]3CCC[C@H]3NC(=O)[C@@H]2C)O[C@@H](C)[C@@H]1O
> 30 | CO[C@]1(C)C[C@H](O[C@H]2[C@H](C)[C@@H](O[C@@H]3O[C@H](C)C[C@H](N(C)C)[C@H]3O)[C@](C)(O)C[C@@H](C)CN(C)C(=O)C[C@@H](Cc3ccc(NC(=O)[C@H](Cc4ccccc4Cl)NC(=O)Cc4ccccc4)cc3)NC(=O)C[C@@H](CC(C)C)NC(=O)[C@@H]2C)O[C@@H](C)[C@@H]1O
12.6 | CO[C@]1(C)C[C@H](O[C@H]2[C@H](C)[C@@H](O[C@@H]3O[C@H](C)C[C@H](N(C)C)[C@H]3O)[C@](C)(O)C[C@@H](C)CN(C)C(=O)C[C@@H](Cc3ccc(NC(=O)[C@H](Cc4ccccc4Cl)NC(=O)Cc4ccccc4)cc3)NC(=O)[C@H](CC(C)C)NC(=O)[C@@H]2C)O[C@@H](C)[C@@H]1O
2.6 | CC[C@H](C)[C@@H]1NC(=O)[C@H](C)[C@@H](O[C@H]2C[C@@](C)(OC)[C@@H](O)[C@H](C)O2)[C@H](C)[C@@H](O[C@@H]2O[C@H](C)C[C@H](N(C)C)[C@H]2O)[C@](C)(O)C[C@@H](C)CN(C)C(=O)C[C@@H](Cc2ccc(NC(=O)[C@H](Cc3ccccc3Cl)NC(=O)Cc3ccccc3)cc2)NC1=O
> 30 | CO[C@]1(C)C[C@H](O[C@H]2[C@H](C)[C@@H](O[C@@H]3O[C@H](C)C[C@H](N(C)C)[C@H]3O)[C@](C)(O)C[C@@H](C)CN(C)C(=O)C[C@@H](Cc3ccc(NC(=O)[C@H](Cc4ccccc4Cl)NC(=O)Cc4ccccc4)cc3)NC(=O)[C@@H](C(C)C)NC(=O)[C@@H]2C)O[C@@H](C)[C@@H]1O
> 30 | CO[C@]1(C)C[C@H](O[C@H]2[C@H](C)[C@@H](O[C@@H]3O[C@H](C)C[C@H](N(C)C)[C@H]3O)[C@](C)(O)C[C@@H](C)CN(C)C(=O)C[C@H](Cc3ccc(NC(=O)[C@H](Cc4ccccc4Cl)NC(=O)Cc4ccccc4)cc3)NC(=O)[C@H](C(C)C)NC(=O)[C@@H]2C)O[C@@H](C)[C@@H]1O
15 | CO[C@]1(C)C[C@H](O[C@H]2[C@H](C)[C@@H](O[C@@H]3O[C@H](C)C[C@H](N(C)C)[C@H]3O)[C@](C)(O)C[C@@H](C)CN(C)C(=O)C[C@@H](Cc3ccc(NC(=O)[C@H](Cc4ccccc4Cl)NC(=O)Cc4ccccc4)cc3)NC(=O)[C@H](C)NC(=O)[C@@H]2C)O[C@@H](C)[C@@H]1O
> 30 | CO[C@]1(C)C[C@H](O[C@H]2[C@H](C)[C@@H](O[C@@H]3O[C@H](C)C[C@H](N(C)C)[C@H]3O)[C@](C)(O)C[C@@H](C)CN(C)C(=O)C[C@@H](Cc3ccc(NC(=O)[C@H](Cc4ccccc4Cl)NC(=O)Cc4ccccc4)cc3)NC(=O)C[C@H](C(C)C)NC(=O)[C@@H]2C)O[C@@H](C)[C@@H]1O
0.256 | CO[C@]1(C)C[C@H](O[C@H]2[C@H](C)[C@@H](O[C@@H]3O[C@H](C)C[C@H](N(C)C)[C@H]3O)[C@](C)(O)C[C@@H](C)CN(C)C(=O)[C@@H](C(C)C)NC(=O)C[C@H](Cc3ccc(NC(=O)[C@H](Cc4ccccc4Cl)NC(=O)Cc4ccccc4)cc3)NC(=O)[C@@H]2C)O[C@@H](C)[C@@H]1O
> 30 | CO[C@]1(C)C[C@H](O[C@H]2[C@H](C)[C@@H](O[C@@H]3O[C@H](C)C[C@H](N(C)C)[C@H]3O)[C@](C)(O)C[C@@H](C)CN(C)C(=O)C[C@H](Cc3ccc(NC(=O)[C@H](Cc4ccccc4Cl)NC(=O)Cc4ccccc4)cc3)NC(=O)[C@@H](C(C)C)NC(=O)[C@@H]2C)O[C@@H](C)[C@@H]1O
> 30 | CO[C@]1(C)C[C@H](O[C@H]2[C@H](C)[C@@H](O[C@@H]3O[C@H](C)C[C@H](N(C)C)[C@H]3O)[C@](C)(O)C[C@@H](C)CN(C)C(=O)[C@H](C(C)C)NC(=O)C[C@@H](Cc3ccc(NC(=O)[C@H](Cc4ccccc4Cl)NC(=O)Cc4ccccc4)cc3)NC(=O)[C@@H]2C)O[C@@H](C)[C@@H]1O
24.8 | CO[C@]1(C)C[C@H](O[C@H]2[C@H](C)[C@@H](O[C@@H]3O[C@H](C)C[C@H](N(C)C)[C@H]3O)[C@](C)(O)C[C@@H](C)CN(C)C(=O)C[C@@H](Cc3ccc(NC(=O)[C@H](Cc4ccccc4Cl)NC(=O)Cc4ccccc4)cc3)NC(=O)[C@@H](C(C)C)CNC(=O)[C@@H]2C)O[C@@H](C)[C@@H]1O
1.6 | CO[C@]1(C)C[C@H](O[C@H]2[C@H](C)[C@@H](O[C@@H]3O[C@H](C)C[C@H](N(C)C)[C@H]3O)[C@](C)(O)C[C@@H](C)CN(C)C(=O)C[C@@H](Cc3ccc(NC(=O)[C@H](Cc4ccccc4Cl)NC(=O)Cc4ccccc4)cc3)NC(=O)[C@H](C(C)(C)C)NC(=O)[C@@H]2C)O[C@@H](C)[C@@H]1O
